Measurements reported in ChEMBL document CHEMBL5376012, “Consensus screening for a challenging target: the quest for P-glycoprotein inhibitors” (RSC Med Chem, 2024).
Calls of active or inactive are those of the source. The calls are words filed in the database; no cut-off is given here.

Key:
[1] = biological target: ATP-dependent translocase ABCB1 (Homo sapiens, UniProt P08183); assay: Inhibition of human recombinant P-gp ATPase activity in isolated membranes incubated in presence of verapamil by firefly luciferase based luminescence analysis; assay type: cell membranes
ATP-dependent translocase ABCB1, sequence (P08183 whole entry): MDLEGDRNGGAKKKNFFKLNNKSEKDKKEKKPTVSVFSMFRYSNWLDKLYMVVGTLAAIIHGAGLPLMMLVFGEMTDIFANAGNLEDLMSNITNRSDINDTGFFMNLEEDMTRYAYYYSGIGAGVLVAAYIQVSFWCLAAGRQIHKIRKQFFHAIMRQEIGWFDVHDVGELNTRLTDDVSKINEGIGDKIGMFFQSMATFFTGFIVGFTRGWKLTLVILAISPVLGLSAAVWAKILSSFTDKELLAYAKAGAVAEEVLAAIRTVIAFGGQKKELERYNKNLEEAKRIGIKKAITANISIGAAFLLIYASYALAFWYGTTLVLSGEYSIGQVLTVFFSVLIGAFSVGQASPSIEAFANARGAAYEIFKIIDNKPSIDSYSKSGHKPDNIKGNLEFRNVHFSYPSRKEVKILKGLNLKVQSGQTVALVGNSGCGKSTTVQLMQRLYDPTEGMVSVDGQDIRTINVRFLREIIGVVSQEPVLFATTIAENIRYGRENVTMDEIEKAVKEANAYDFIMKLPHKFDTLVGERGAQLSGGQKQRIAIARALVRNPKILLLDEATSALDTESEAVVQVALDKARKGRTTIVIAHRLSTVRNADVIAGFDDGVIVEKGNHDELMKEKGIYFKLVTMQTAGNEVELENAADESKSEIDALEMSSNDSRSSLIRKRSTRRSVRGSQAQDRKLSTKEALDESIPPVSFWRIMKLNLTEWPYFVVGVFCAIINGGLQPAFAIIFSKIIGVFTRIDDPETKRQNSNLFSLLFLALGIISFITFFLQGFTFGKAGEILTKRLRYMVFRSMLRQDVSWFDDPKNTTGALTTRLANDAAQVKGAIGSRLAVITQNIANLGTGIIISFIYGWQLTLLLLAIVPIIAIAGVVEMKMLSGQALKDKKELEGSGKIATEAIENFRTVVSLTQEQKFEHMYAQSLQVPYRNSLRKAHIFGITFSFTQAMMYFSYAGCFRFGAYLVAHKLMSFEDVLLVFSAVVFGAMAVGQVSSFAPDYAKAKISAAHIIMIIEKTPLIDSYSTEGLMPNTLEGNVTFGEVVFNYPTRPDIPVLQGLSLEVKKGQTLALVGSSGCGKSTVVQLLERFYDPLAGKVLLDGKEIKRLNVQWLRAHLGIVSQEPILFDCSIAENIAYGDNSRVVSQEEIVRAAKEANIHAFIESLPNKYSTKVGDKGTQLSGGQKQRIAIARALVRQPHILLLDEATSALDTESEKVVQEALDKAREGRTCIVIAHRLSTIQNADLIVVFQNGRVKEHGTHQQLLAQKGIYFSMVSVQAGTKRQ

Caco-2 [2] = assay: Cytotoxicity against colchicine and vincristine stimulated human Caco-2 cells assessed as reduction in cell viability at 10 uM preincubated for 30 mins followed by colchicine and vincristine addition for 24 hrs by CCK-8 assay relative to control; assay type: functional; settings: time 24.5 hrs
Caco-2 [3] = assay: Cytotoxicity against colchicine and vincristine stimulated human Caco-2 cells assessed as reduction in cell viability at 10 uM preincubated for 30 mins followed by colchicine and vincristine addition for 24 hrs by CCK-8 assay; assay type: functional, cell-based; settings: time 24.5 hrs

SMILES | IC50 [1] [µM] | Activity (Caco-2 [2]) [%] | Activity (Caco-2 [3])
COc1cc(CCNC(=O)C[C@@H](C2=C(O)[C@@]3(Oc4c(Cl)c(OC)cc(OC)c4C3=O)[C@H](C)CC2=O)c2ccc(SC)cc2)c([N+](=O)[O-])cc1OC | 2.4 | 30 | 
COC(=O)[C@@H](Cc1cccc([N+](=O)[O-])c1O)NC(=O)CCC(=O)OCC(=O)[C@@]1(O)CC[C@@H]2[C@@H]3CCC4=CC(=O)CC[C@]4(C)[C@@H]3CC[C@@]21C | 7.9 |  | 
CCOC(=O)c1cccc(NC(=O)O[C@@H]2CO[C@H]3[C@@H]2OC[C@@H]3NS(=O)(=O)c2cc(OC)ccc2OC)c1 | > 50 |  | inactive
COC(=O)C[C@@H](c1ccc(-c2cc(C(=O)O)ccc2Cl)o1)c1oc(CN2CCN(c3ccc(OC)cc3)CC2)cc(=O)c1O | 4.99 | 30 | 
CC(C)C[C@H](NC(=O)[C@H]1CCCN1C(=O)[C@@H](C)NC(=O)COc1cc(O)c2c(=O)c(-c3ccc4c(c3)OCCO4)coc2c1)C(=O)CC(N)=O | > 50 |  | inactive
CC(C)(C)OC(=O)N[C@H](Cc1ccc(OC(=O)OC(C)(C)C)cc1)C(=O)NCCCC(=O)Oc1ccc2c(=O)c(Oc3ccccc3F)coc2c1 | > 50 |  | 
O=C(O)[C@H]1O[C@@H](Oc2cc3oc(-c4ccc(O)cc4)cc(=O)c3c(O)c2O)[C@H](O)[C@@H](O)[C@@H]1O [SCUTELLARIN] | 19.7 |  | 
COc1ccc(-c2coc3c4c(cc(O)c3c2=O)OC(=O)C[C@H]4c2ccc(OCc3nccn3C)c(OC)c2)cc1OC | 4.8 | 30 | 

Second part, led by results:

IC50 [1] [µM] | SMILES | Activity (Caco-2 [2]) [%] | Activity (Caco-2 [3])
> 50 | COc1ccc2c(c1)[C@H](CCNC(=O)C[C@@H](C1=C(O)[C@@]3(Oc4c(Cl)c(OC)cc(OC)c4C3=O)[C@H](C)CC1=O)c1ccc(O)c(OC)c1)C(=O)N2 |  | 
3.17 | CC(=O)c1c(O)c(C)c(O)c2c1OC1=CC(=O)/C(=C(/C)Nc3cc(-c4nnn(CC(=O)O)n4)ccc3O)C(=O)[C@@]12C | 30 | 
1.28 | COc1cc([C@@H](CC(=O)NCCC(=O)Nc2ccccn2)C2=C(O)[C@@]3(Oc4c(Cl)c(OC)cc(OC)c4C3=O)[C@H](C)CC2=O)ccc1O | 30 | 
3.31 | COc1cc([C@@H](CC(=O)NCCCN2CCOCC2)C2=C(O)[C@@]3(Oc4c(Cl)c(OC)cc(OC)c4C3=O)[C@H](C)CC2=O)ccc1O | 30 | 
